For one assay, the system named is HCC78. Put plainly: Antiproliferative activity against human HCC78 cells harboring SLC34A2-ROS1 after 72 hrs by MTT assay. The format is functional, cell-based. The settings on record: HCC78, 72 h.
The test system of a further assay is KARPAS-299. Put plainly: cells. To be noted: Homo sapiens, KARPAS-299, 72 h.
The next assay concerns A549. Kind of assay: cells. To be noted: Homo sapiens, A549, 72 h.
The next assay relates to BaF3. Kind of assay: cells. The settings on record: Mus musculus, BaF3, 72 h.
The test system of a further assay is NCI-H2228. Kind of assay: cells. The settings on record: Homo sapiens, NCI-H2228, 72 h.
Assay [1] has as its target Proto-oncogene tyrosine-protein kinase ROS (Homo sapiens, UniProt P08922). Put plainly: Inhibition of human N-terminal GST-tagged ROS cytoplasmic domain (1883 to 2347 residues) expressed in baculovirus expression system after 1 hr by mobility shift assay.
Assay [2] concerns the target ALK tyrosine kinase receptor (Homo sapiens, UniProt Q9UM73).
Description: Inhibition of human N-terminal GST-tagged ALK cytoplasmic domain (1058 to 1620 residues) expressed in baculovirus expression system after 1 hr by mobility shift assay
Assay [3] concerns the target ALK tyrosine kinase receptor (Homo sapiens, UniProt Q9UM73, G1202R).
Assay [4] has as its target Epidermal growth factor receptor (Homo sapiens, UniProt P00533).
Description: Inhibition of human N-terminal GST-tagged EGFR cytoplasmic domain (669 to 1210 residues) expressed in baculovirus expression system after 1 hr by mobility shift assay
Assay [5] has as its target ALK tyrosine kinase receptor (Homo sapiens, UniProt Q9UM73, L1196M).
Description: Inhibition of human N-terminal GST-tagged ALK L1196M mutant cytoplasmic domain (1058 to 1620 residues) expressed in baculovirus expression system after 1 hr by mobility shift assay

Each structure is given as a SMILES string. pIC50: −log10 of the molar value.

Epidermal growth factor receptor, sequence (P00533 whole entry): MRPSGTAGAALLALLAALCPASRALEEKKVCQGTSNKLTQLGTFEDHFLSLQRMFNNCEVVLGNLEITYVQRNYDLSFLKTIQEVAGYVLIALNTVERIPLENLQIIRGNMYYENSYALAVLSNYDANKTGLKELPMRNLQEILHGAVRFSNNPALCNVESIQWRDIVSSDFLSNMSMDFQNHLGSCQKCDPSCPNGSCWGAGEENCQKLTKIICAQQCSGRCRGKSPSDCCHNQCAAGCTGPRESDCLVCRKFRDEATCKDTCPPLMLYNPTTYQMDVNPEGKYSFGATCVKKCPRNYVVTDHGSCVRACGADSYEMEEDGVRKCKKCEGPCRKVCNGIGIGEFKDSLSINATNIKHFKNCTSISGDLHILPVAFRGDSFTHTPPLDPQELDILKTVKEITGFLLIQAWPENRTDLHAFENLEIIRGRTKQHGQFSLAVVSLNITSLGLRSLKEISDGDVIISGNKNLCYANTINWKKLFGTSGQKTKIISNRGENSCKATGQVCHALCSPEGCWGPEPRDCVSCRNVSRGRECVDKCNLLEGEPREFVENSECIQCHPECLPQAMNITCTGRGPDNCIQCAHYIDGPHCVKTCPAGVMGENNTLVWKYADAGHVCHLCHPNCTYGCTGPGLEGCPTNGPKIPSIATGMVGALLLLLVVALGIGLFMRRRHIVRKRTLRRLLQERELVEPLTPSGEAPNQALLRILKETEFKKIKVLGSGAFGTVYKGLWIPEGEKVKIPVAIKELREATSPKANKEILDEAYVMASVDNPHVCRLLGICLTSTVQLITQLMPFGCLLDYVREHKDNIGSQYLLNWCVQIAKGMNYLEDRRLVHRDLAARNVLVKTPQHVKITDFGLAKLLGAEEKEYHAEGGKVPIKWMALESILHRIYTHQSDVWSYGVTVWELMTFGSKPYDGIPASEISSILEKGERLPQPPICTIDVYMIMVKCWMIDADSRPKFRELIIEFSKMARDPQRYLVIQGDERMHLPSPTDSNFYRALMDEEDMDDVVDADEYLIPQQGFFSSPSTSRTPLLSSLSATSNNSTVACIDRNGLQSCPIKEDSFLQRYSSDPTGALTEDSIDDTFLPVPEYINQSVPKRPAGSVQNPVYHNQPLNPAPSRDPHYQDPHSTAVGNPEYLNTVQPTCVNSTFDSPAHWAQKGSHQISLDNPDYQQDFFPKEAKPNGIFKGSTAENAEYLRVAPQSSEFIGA
Proto-oncogene tyrosine-protein kinase ROS, sequence (P08922 whole entry, the tested form may be a part): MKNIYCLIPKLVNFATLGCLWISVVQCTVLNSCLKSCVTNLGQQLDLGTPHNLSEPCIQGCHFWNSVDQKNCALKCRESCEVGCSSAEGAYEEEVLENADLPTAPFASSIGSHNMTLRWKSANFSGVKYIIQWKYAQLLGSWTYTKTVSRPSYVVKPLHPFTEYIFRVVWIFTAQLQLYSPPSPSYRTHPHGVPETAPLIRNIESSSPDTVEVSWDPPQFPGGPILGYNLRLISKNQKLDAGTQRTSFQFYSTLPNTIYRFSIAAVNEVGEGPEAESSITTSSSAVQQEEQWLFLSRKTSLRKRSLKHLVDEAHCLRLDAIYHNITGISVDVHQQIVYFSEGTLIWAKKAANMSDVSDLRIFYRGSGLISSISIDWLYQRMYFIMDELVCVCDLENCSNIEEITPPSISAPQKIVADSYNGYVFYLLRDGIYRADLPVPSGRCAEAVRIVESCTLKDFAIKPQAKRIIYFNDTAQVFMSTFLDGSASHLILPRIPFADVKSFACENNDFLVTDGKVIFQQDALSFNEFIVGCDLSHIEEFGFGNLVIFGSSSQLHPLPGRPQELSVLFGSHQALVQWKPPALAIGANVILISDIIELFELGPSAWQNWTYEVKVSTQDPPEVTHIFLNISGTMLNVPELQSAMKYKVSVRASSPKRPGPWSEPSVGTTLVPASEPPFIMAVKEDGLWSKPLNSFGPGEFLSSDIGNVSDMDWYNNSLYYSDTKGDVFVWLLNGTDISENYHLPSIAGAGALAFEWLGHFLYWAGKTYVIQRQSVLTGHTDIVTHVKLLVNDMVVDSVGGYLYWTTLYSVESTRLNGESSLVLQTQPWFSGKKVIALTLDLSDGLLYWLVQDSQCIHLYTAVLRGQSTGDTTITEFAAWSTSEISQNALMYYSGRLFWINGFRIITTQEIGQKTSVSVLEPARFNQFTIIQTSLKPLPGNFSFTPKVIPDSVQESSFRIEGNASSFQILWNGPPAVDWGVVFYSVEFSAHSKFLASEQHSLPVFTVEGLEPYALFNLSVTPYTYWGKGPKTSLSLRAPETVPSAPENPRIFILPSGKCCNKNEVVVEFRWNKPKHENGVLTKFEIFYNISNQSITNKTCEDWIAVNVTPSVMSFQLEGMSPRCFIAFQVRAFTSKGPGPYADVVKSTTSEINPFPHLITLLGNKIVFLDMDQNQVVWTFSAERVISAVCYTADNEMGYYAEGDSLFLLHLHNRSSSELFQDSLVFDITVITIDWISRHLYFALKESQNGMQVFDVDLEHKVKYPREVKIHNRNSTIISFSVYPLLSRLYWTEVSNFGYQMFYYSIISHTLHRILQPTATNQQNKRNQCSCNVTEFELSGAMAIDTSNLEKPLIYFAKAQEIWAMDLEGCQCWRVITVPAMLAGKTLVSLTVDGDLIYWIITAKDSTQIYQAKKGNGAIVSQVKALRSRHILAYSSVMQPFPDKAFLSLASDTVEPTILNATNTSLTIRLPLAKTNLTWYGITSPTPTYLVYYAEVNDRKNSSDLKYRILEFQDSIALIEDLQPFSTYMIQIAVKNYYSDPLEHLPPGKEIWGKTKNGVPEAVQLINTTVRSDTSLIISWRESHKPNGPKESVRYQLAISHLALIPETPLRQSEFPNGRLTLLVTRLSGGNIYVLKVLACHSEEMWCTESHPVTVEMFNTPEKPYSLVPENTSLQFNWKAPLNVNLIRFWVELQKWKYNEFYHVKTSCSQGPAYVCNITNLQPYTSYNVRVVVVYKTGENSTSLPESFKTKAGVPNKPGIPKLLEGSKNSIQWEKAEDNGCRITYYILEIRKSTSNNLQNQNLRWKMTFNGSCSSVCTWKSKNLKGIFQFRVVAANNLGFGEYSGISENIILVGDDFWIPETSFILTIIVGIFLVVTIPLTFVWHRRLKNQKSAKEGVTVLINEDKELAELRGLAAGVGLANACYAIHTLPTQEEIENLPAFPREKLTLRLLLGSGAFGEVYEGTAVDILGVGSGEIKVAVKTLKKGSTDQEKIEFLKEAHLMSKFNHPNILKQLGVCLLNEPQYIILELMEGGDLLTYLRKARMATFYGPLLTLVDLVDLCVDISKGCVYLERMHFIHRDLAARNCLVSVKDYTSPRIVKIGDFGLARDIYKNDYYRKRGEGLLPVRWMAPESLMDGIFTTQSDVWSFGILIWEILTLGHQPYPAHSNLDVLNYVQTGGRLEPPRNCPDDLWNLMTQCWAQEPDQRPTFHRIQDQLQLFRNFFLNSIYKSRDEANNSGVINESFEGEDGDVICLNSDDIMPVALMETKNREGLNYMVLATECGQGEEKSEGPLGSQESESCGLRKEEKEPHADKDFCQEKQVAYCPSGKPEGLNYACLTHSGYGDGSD
ALK tyrosine kinase receptor (Homo sapiens, UniProt Q9UM73, G1202R), sequence (Q9UM73 19-1620 G1202R limits assumed): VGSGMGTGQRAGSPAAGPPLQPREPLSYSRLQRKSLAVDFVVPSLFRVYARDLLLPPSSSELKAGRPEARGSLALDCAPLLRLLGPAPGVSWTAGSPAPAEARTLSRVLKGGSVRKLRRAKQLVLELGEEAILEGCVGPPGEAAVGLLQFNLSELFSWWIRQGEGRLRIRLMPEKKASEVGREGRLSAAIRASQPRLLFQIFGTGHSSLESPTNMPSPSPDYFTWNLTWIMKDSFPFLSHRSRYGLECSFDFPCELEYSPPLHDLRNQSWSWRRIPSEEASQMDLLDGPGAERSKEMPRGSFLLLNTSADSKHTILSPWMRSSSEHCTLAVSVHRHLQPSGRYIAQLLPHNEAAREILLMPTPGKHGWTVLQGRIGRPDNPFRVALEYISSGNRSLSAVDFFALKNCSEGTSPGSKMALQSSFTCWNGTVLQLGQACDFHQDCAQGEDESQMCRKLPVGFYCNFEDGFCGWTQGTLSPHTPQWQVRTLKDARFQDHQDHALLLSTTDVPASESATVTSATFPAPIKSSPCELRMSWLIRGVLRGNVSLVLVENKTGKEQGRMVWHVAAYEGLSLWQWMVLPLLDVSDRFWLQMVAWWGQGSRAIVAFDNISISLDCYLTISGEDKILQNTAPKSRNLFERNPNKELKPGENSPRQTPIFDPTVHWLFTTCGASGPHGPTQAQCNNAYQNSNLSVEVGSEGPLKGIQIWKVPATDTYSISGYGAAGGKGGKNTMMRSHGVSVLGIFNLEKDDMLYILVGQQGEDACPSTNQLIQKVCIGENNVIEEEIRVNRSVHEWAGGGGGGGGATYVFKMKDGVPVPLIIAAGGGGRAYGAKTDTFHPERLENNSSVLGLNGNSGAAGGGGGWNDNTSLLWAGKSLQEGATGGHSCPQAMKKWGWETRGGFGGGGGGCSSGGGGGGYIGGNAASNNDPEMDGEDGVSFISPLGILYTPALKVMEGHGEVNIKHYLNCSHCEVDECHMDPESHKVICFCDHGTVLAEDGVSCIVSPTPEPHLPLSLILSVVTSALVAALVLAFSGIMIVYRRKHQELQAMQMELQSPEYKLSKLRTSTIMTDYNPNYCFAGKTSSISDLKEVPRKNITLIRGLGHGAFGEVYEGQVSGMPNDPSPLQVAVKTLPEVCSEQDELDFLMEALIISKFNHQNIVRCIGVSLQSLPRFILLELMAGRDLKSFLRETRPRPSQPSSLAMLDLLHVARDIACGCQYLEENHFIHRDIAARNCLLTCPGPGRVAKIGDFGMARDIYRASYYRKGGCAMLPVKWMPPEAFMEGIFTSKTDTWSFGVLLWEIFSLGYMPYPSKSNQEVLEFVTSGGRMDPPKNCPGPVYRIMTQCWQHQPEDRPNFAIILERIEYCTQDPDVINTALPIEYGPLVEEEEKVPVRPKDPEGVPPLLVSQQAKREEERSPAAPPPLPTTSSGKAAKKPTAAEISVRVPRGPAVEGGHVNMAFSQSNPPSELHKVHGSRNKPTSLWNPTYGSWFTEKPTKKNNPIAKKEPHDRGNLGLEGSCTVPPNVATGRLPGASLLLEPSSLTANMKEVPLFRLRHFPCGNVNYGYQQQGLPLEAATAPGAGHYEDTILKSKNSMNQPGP
Description for A549: Antiproliferative activity against human A549 cells after 72 hrs by MTT assay
Description for KARPAS-299: Antiproliferative activity against human KARPAS299 cells harboring NPM-ALK after 72 hrs by MTT assay
Description for NCI-H2228: Antiproliferative activity against human NCI-H2228 cells harboring EML4-ALK after 72 hrs by MTT assay

For orientation: pIC50 means −log10 of the IC50, conventionally taken in molar units. In the case of `COc1nc(N2CCN(CCO)CC2)ccc1Nc1ncc(Cl)c(Nc2ccccc2NS(=O)(=O)C2CC2)n1`, the negative-log IC50 (pIC50) with HCC78 is 6.89; in the assay with KARPAS-299, 7.46; in the assay with A549 it was < 6.00; with BaF3, 7.40; in the assay with NCI-H2228 it was 7.74.

`CCN1CCN(c2ccc(Nc3ncc(Cl)c(Nc4ccccc4NS(C)(=O)=O)n3)c(OC)n2)CC1`: the negative-log IC50 (pIC50) is 6.13 with HCC78; 6.06 with KARPAS-299; < 6.00 with A549; < 6.00 in the assay with BaF3; 6.02 in the assay on NCI-H2228.

As to `COc1nc(N2CCCCC2)ccc1Nc1ncc(Cl)c(Nc2ccccc2NS(=O)(=O)C2CC2)n1`, the negative-log IC50 (pIC50) in the assay with HCC78 is 6.41; in the assay with KARPAS-299, 6.32; in the assay with A549, < 6.00; with BaF3 it was 6.20; in the assay with NCI-H2228, 6.57.

With `COc1nc(N2CCCC2)ccc1Nc1ncc(Cl)c(Nc2ccccc2NS(C)(=O)=O)n1`, the negative logarithm of the IC50 (pIC50) in the assay on HCC78 was 6.62; in the assay on KARPAS-299, 7.10; in the assay on A549, 6.15; in the assay with BaF3, 6.89; with NCI-H2228, 6.77.

For the molecule `CC(C)Sc1nc(N2CCCC2)ccc1Nc1ncc(Cl)c(Nc2ccccc2NS(C)(=O)=O)n1`, the pIC50 with HCC78 is 6.49; in the assay with KARPAS-299, 6.12; in the assay on A549, < 6.00; in the assay on BaF3, < 6.00; in the assay on NCI-H2228, 6.01.

As to `COc1nc(N2CCNC(C)C2)ccc1Nc1ncc(Cl)c(Nc2ccccc2NS(C)(=O)=O)n1` (centres undefined), the pIC50 with HCC78 is 6.36; in the assay on KARPAS-299 it was 6.41; in the assay with A549 it was < 6.00; in the assay with BaF3, < 6.00; in the assay on NCI-H2228 it was 6.31.

With `COc1nc(N2CC(O)C2)ccc1Nc1ncc(Cl)c(Nc2ccccc2NS(=O)(=O)C2CC2)n1`, the pIC50 in the assay with HCC78 was 7.05; in the assay on KARPAS-299, 6.96; in the assay with A549, < 6.00; with BaF3 it was 7.15; in the assay on NCI-H2228 it was 7.30.

As for `COc1nc(N2CCN(C)CC2)ccc1Nc1ncc(Cl)c(Nc2ccccc2NS(=O)(=O)C2CC2)n1`, the negative logarithm of the IC50 (pIC50) is 5.34 in assay [1]; 5.41 in [2]; 5.22 in assay [3]; 6.57 with HCC78; < 3.00 in [4]; 7.55 with KARPAS-299. Moreover, the pIC50 with A549 is < 6.00; in [5], 5.41; in the assay on BaF3, 7.05; in the assay with NCI-H2228, 7.22.

Take `CN1CCN(c2ccc(Nc3ncc(Cl)c(Nc4ccccc4NS(C)(=O)=O)n3)cn2)CC1`: the pIC50 is 7.15 in the assay on HCC78; 7.40 in the assay on KARPAS-299; 6.07 in the assay on A549; 6.11 with BaF3; 7.10 in the assay with NCI-H2228.

Consider `Cc1cc(Nc2ncc(Cl)c(Nc3ccccc3S(=O)(=O)C(C)C)n2)c(OC(C)C)cc1C1CCNCC1` [CERITINIB], for which the pIC50 in the assay on KARPAS-299 was 7.39; in the assay with A549, < 6.00; in the assay with BaF3 it was < 6.00; in the assay with NCI-H2228, 7.59.

As for `CN1CCN(c2ccc(Nc3ncc(Cl)c(Nc4ccccc4NS(=O)(=O)C4CC4)n3)cn2)CC1`, the pIC50 with HCC78 was 7.05; with KARPAS-299 it was 7.22; in the assay with A549 it was < 6.00; with BaF3, 6.36; with NCI-H2228, 6.85.

With `CCN(CC)c1ccc(Nc2ncc(Cl)c(Nc3ccccc3NS(C)(=O)=O)n2)c(OC)n1`, the pIC50 was 6.51 in the assay on HCC78; 7.22 in the assay on KARPAS-299; < 6.00 with A549; 6.74 in the assay on BaF3; 6.44 with NCI-H2228.

As for `C/C=C/C(=O)Nc1ccccc1Nc1nc(Nc2ccc(N3CCNC(C)C3)nc2OC)ncc1Cl` (centres undefined), the negative-log IC50 (pIC50) with HCC78 is 6.04; in the assay on KARPAS-299, 6.24; in the assay with A549 it was < 6.00; in the assay with BaF3 it was < 6.00; in the assay on NCI-H2228, < 6.00.

Regarding `C/C=C/C(=O)Nc1ccccc1Nc1nc(Nc2ccc(N3CCN(C)CC3)nc2OC)ncc1Cl`, the pIC50 in the assay with HCC78 was 6.39; with KARPAS-299, 7.14; in the assay with A549, < 6.00; with BaF3 it was 6.96; in the assay with NCI-H2228, 6.57.

Consider `CS(=O)(=O)Nc1ccccc1Nc1nc(Nc2ccc(N3CCCC3)nc2)ncc1Cl`, for which the pIC50 was 7.10 in the assay on HCC78; 7.10 in the assay with KARPAS-299; < 6.00 in the assay on A549; 6.13 with BaF3; 6.32 with NCI-H2228.

In the case of `COc1nc(N2CCSCC2)ccc1Nc1ncc(Cl)c(Nc2ccccc2NS(C)(=O)=O)n1`, the negative-log IC50 (pIC50) in assay [1] is 5.21; in assay [2] it was 5.55; in assay [3], 5.10; in the assay on HCC78 it was 7.10; in assay [4] it was < 3.00; in the assay with KARPAS-299, 7.57. In addition, the pIC50 with A549 was 6.07; in [5] it was 5.80; in the assay on BaF3, 7.30; in the assay on NCI-H2228, 7.62.

As to `COc1nc(N2CCCCC2)ccc1Nc1ncc(Cl)c(Nc2ccccc2NS(C)(=O)=O)n1`, the pIC50 is 6.72 in the assay on HCC78; 7.40 with KARPAS-299; < 6.00 in the assay with A549; 6.48 in the assay with BaF3; 6.89 in the assay with NCI-H2228.

As for `COc1nc(N2CCCC2)ccc1Nc1ncc(Cl)c(Nc2ccccc2NS(=O)(=O)C2CC2)n1`, the negative-log IC50 (pIC50) in the assay on HCC78 was 6.62; in the assay with KARPAS-299, 6.92; in the assay with A549, < 6.00; in the assay with BaF3, < 6.00; in the assay with NCI-H2228, 6.39.

For the molecule `COc1nc(N2CCOCC2)ccc1Nc1ncc(Cl)c(Nc2ccccc2NS(=O)(=O)C2CC2)n1`, the pIC50 with HCC78 was 6.32; with KARPAS-299 it was 7.26; with A549, < 6.00; with BaF3, 6.77; in the assay on NCI-H2228, 7.05.

In the case of `COc1nc(N2CC(O)C2)ccc1Nc1ncc(Cl)c(Nc2ccccc2NS(C)(=O)=O)n1`, the pIC50 is 5.80 in [1]; 5.85 in assay [2]; 5.28 in assay [3]; 7.46 in the assay on HCC78; < 3.00 in assay [4]; 7.22 in the assay on KARPAS-299. Also, the pIC50 in the assay with A549 was < 6.00; in assay [5], 5.70; with BaF3, 7.49; in the assay with NCI-H2228, 7.38.

In the case of `COc1nc(N2CCN(C)CC2)ccc1Nc1ncc(Cl)c(Nc2ccccc2NC(C)=O)n1`, the pIC50 in the assay with HCC78 was 6.85; in the assay on KARPAS-299, 7.57; with A549 it was 6.15; with BaF3, 7.05; in the assay on NCI-H2228, 6.80.

Regarding `CC(C)Oc1nc(N2CCCC2)ccc1Nc1ncc(Cl)c(Nc2ccccc2NS(C)(=O)=O)n1`, the negative logarithm of the IC50 (pIC50) is 7.05 in the assay on HCC78; 6.51 with KARPAS-299; 6.09 with A549; 6.07 in the assay with BaF3; 6.39 in the assay on NCI-H2228.

Turning to `COc1nc(N2CCN(CCO)CC2)ccc1Nc1ncc(Cl)c(Nc2ccccc2NS(C)(=O)=O)n1`, the negative logarithm of the IC50 (pIC50) in [1] was 5.47; in assay [2], 5.49; in [3], 5.11; with HCC78 it was 6.96; in [4] it was < 3.00; in the assay on KARPAS-299 it was 7.42. The pIC50 in the assay with A549 was < 6.00; in assay [5], 5.66; in the assay with BaF3, 7.05; with NCI-H2228, 7.15.

`CCN(CC)c1ccc(Nc2ncc(Cl)c(Nc3ccccc3NS(=O)(=O)C3CC3)n2)c(OC)n1`: the pIC50 in the assay on HCC78 is 6.59; with KARPAS-299 it was 6.34; in the assay on A549 it was < 6.00; with BaF3, 6.92; with NCI-H2228 it was 6.19.

On to `C/C=C/C(=O)Nc1ccccc1Nc1nc(Nc2ccc(N3CCCC3)nc2OC)ncc1Cl`, for which the pIC50 in the assay on HCC78 is 6.80; in the assay on KARPAS-299 it was 6.66; with A549, < 6.00; with BaF3, 6.52; with NCI-H2228, 6.42.

In the case of `CC(C)Sc1nc(N2CCN(C)CC2)ccc1Nc1ncc(Cl)c(Nc2ccccc2NS(C)(=O)=O)n1`, the pIC50 in the assay on HCC78 is 6.89; with KARPAS-299, 6.47; with A549 it was < 6.00; in the assay with BaF3 it was < 6.00; in the assay on NCI-H2228, 6.38.

Turning to `C/C=C/C(=O)Nc1ccccc1Nc1nc(Nc2ccc(N3CCCCC3)nc2OC)ncc1Cl`, the negative-log IC50 (pIC50) in the assay on HCC78 was 6.68; with KARPAS-299, 7.10; in the assay on A549, < 6.00; with BaF3 it was 6.64; in the assay on NCI-H2228 it was 6.44.

Regarding `CC(C)Oc1nc(N2CCN(C)CC2)ccc1Nc1ncc(Cl)c(Nc2ccccc2NS(C)(=O)=O)n1`, the negative logarithm of the IC50 (pIC50) was 5.70 in assay [1]; 5.38 in [2]; 5.03 in [3]; 6.59 in the assay with HCC78; < 3.00 in assay [4]; 7.74 with KARPAS-299. The pIC50 is 6.06 in the assay on A549, 5.32 in [5], 6.06 in the assay on BaF3 and 7.34 in the assay on NCI-H2228.
